Reference: patent US10457662B2, “Substituted amides for treating and preventing cancer” (The Regents of the University of Michigan, priority 2015, dated 2019)
Like-named read-outs stand apart in the source and are kept apart here.

Experiments:
MiaPaCa-2 = experiment: MTT assay, MiaPaCa-2; settings: Homo sapiens
Experimental: Cells were treated with QN523 for 1, 4, 8, 24, 48, 72 h and left in culture in fresh media. MTT assay was performed 72 h after initiation of treatment. Data points represent Mean±SD from three independent experiments.
(§1) Experiments conducted during the course of developing embodiments for the present invention involved performance of a phenotypic screen of a library of 20,000 small-molecules representing five million compounds. […] Subsequently, a lead optimization campaign was performed to synthesize a series of close analogs. Initially, the 50 analogs were tested in three pancreatic cancer cell lines using MTT assay (Table 1).
(§2) For in vitro studies, compounds were dissolved in DMSO at 10 mM as stock solutions and stored at −20° C. For in vivo studies, QN523 was dissolved in a vehicle containing 5% DMSO, 35% propylene glycol and 60% saline, and administered at 100 uL through intraperitoneal injections.

BxPC-3 = experiment: MTT assay, BxPC-3; type: cell-based; settings: Homo sapiens
Experimental: as §1, §2

Panc-1 = experiment: MTT assay, Panc-1; type: cell-based; settings: Homo sapiens
Experimental: as §1, §2

[1] = system: three pancreatic cancer cell lines; experiment: MTT assay, three pancreatic cancer cell lines; type: cell-based; settings: read-out: Mark: IC50 lower than 1 μM in at least one cell line, Table 1
[2] = system: WIPI1, GABARAPL1 and LC3B; experiment: Western blotting of autophagy related proteins in MiaPaCa-2; type: cell-based; settings: for activation of autophagy: at their IC50 values
Experimental: FIG. 12: QN523 induces protein expression of autophagy markers dose-dependently.
Significant induction of the protein was detected at concentrations as low as 0.25 μM.
(§3) In addition, primary antibodies for LC3B, survivin, cyclin D1, Stat3 and phosphorylated Stat3 (Y705) are from Cell Signaling Technology.

GRP78, CHOP, ATF3, GDF15 = experiment: Western blotting of stress responsive proteins in MiaPaCa-2; type: cell-based
Experimental: FIG. 11: QN523 induces protein expression of stress markers dose-dependently.
This example describes the validation of biomarkers GDF15, ATF3, DDIT3, HSPA5, WIPI1, GABARAPL1 and MAP1LC3B in pancreatic cancer cell lines. To validate the findings from bioinformatics analysis basing on Bru-seq experiments, the proposed biomarkers were further tested in pancreatic cancer cell lines. […] However, the potency of Sulindac is much lower than that of QN523, with IC50 of 300 μM in MiaPaCa-2.
as §3

[3] = MIA PaCa-2, read-out: IC50 Values MiaPaCa-2
[4] = BXPC-3, MTT assay, Mean ± SD, three independent experiments, read-out: IC50 Values BxPC-3
[5] = PANC-1, MTT assay, Mean ± SD, three independent experiments, read-out: IC50 Values Panc-1

| Compound | IC50 (MiaPaCa-2; [3]) [nM] | IC50 (BxPC-3; [4]) [µM] | IC50 (Panc-1; [5]) [µM] | IC50 [1] [nM] | also measured |
| --- | --- | --- | --- | --- | --- |
| CC(C)(C)OC(=O)NCCOc1cc(NC(=O)c2cnccn2)c2ncccc2c1 [QN151, (2-{8-[(Pyrazine-2-carbonyl)amino]quinolin-6-yloxy}ethyl)carbamic acid tert-butyl ester] | 870 ± 150 | 9.17 ± 0.76 | 9.5 ± 0.5 | < 1000 | – |
| Cc1cnc(C(=O)Nc2cc(OCCN3CCOCC3)cc3cccnc23)cn1 [QN138, 5-Methyl-pyrazine-2-carboxylic acid [6-(2-morpholin-4-yl-ethoxy)-quinolin-8-yl]-amide] | 730 ± 150 | 2 ± 0.87 | 3.5 ± 0.5 | < 1000 | – |
| O=C(Nc1cccc2cccnc12)c1ncccn1 [QN567, Pyrimidine-2-carboxylic acid quinolin-8-ylamide] | – | – | – | < 1000 | IC50 (MiaPaCa-2; MIA PaCa-2, read-out: IC50 Values MiaPaCa-2, MTT assay, Mean ± SD, three independent experiments): 330 ± 60 nM; IC50 (BxPC-3; BXPC-3, read-out: IC50 Values BxPC-3): > 10 µM; IC50 (Panc-1; PANC-1, read-out: IC50 Values Panc-1): > 10 µM |
| CN1CCN(CCCN2c3ccccc3Sc3ccc(Cl)cc32)CC1 [prochlorperazine] | – | – | – | – | activation of autophagy [2]: robust activation of autophagy; induction of GRP78 and CHOP (GRP78, CHOP, ATF3, GDF15; tested at IC50 value): most robust induction of GRP78 and CHOP |
| O=C(Nc1cc(F)cc2cccnc12)c1ncccn1 [QN658, Pyrimidine-2-carboxylic acid (6-fluoroquinolin-8-yl)amide] | 300 ± 100 | > 10 | 5.33 ± 1.53 | < 1000 | – |
| O=C(Nc1cc(OCCF)cc2cccnc12)c1cnccn1 [QN144, Pyrazine-2-carboxylic acid [6-(2-fluoro-ethoxy)-quinolin-8-yl]amide] | 370 ± 150 | 4.33 ± 0.76 | 0.53 ± 0.21 | < 1000 | – |
| CSc1ccc2c(c1)N(CCC1CCCCN1C)c1ccccc1S2 (stereo not drawn) [thioridazine] | – | – | – | – | activation of autophagy [2]: robust activation of autophagy |
| Cc1cnc(C(=O)Nc2cc(OCCNC(=O)OC(C)(C)C)cc3cccnc23)cn1 [QN152, (2-{8-[(5-Methylpyrazine-2-carbonyl)amino]quinolin-6-yloxy}ethyl)carbamic acid tert-butyl ester] | 670 ± 120 | 3.67 ± 0.76 | 2.17 ± 0.76 | < 1000 | – |
| O=C(Nc1ccc(Br)c2cccnc12)c1cnccn1 [QN618, Pyrazine-2-carboxylic acid (5-bromoquinolin-8-yl)amide] | 750 ± 90 | 7.51 ± 1.32 | 7.02 ± 2.92 | < 1000 | – |
| O=C(Nc1cc(F)cc2cccnc12)c1cnccn1 [QN651, Pyrazine-2-carboxylic acid (6-fluoro-quinolin-8-yl)amide] | 130 ± 60 | > 10 | 0.67 ± 0.25 | < 1000 | – |
| COc1cc(NC(=O)c2cnccn2)c2ncccc2c1 [QN107] | 280 ± 40 | 5.53 ± 1.18 | 0.77 ± 0.21 | < 1000 | – |
| CC1=C(CC(=O)O)c2cc(F)ccc2/C1=C\c1ccc([S+](C)[O-])cc1 (stereo not drawn) [Sulindac] | – | – | – | – | IC50 (MiaPaCa-2; MIA PaCa-2, read-out: IC50 in MiaPaCa-2): 300000 nM; autophagy-related markers WIPI1, GABARAPL1 and LC3B ([2]; 72 h treatment, western blotting): Accumulation; protein levels of stress responsive markers HSPA5, DDIT3, ATF3 and GDF15 (GRP78, CHOP, ATF3, GDF15; 72 h, western blotting): induced |
